Experimental findings from patent US7759366B2 (Sanofi-Aventis, priority 2006, dated 2010) are described below.

The assay addresses hCB1R (Homo sapiens, UniProt P21554). Put plainly: Binding to the CB1 receptor ([3H]-SR141716A displacement). The procedure:
Binding to the CB1 Receptor:
Test compounds: The compounds (3 μl, 10 mM, 100% DMSO), pipetted into 96-well PP microtiter plates, were diluted with 27 μl of 100% DMSO (dimethyl sulfoxide). Proceeding from this solution, further 3-fold dilution steps were undertaken by transferring 10 μl in each case to a new PP microtiter plate and adding a further 20 μl of 100% DMSO. In each case 6 μl of these solutions were transferred into new 96-well PP microtiter plates and made up with 144 μl of assay buffer. The end concentrations ranged from 10 μM to 0.005 μM. Negative control: AM 251, dissolved in assay buffer with 1% DMSO, was added to the dilution series in the microtiter plates as a control. The end concentration was 1 μM. Blank control: assay buffer with 1% DMSO was added to the dilution series of the microtiter plates as a blank control.
Summary of the Assay Parameters:
High control: ^3H binding without addition of the compound
Low control: ^3H binding in the presence of 1 μM AM 251
The values were calculated using the corrected raw data.
The values reported were obtained as average values of a double determination. The IC50 values were calculated from the measurements with the program Xlfit, formula 205. Ki values were obtained from the IC50 and Kd values utilizing the Cheng-Prusoff equation: […]
Literature: Cheng, Y.-C., and Prusoff, W. H. (1973) Biochem. Pharmacol 22, 3099-3108

Setting [1] is: CHO-K1/cannabinoid CB1 protein 2 μg/well, [3H]-SR141716A 0.5 nM, Ki from IC50 by Cheng-Prusoff, average of double determination, read-out: hCB1R, binding Ki.

Molecules are shown by their SMILES. Read-outs that look alike come from different tables or passages of the source.

hCB1R, sequence (P21554 whole entry): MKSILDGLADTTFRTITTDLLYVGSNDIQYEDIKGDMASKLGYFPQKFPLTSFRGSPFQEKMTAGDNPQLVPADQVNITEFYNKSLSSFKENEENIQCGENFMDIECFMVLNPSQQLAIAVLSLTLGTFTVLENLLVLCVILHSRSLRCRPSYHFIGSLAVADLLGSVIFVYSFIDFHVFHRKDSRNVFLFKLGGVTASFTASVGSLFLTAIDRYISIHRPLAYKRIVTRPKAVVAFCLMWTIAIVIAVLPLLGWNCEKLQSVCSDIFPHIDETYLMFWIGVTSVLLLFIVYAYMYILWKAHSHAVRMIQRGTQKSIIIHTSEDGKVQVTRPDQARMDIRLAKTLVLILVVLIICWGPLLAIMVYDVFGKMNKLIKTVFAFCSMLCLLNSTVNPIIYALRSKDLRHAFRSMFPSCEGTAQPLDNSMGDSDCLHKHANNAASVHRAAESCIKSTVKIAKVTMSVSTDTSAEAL

On to `COc1ccc(Nc2ccc(F)cc2)c(CN2C(=O)N(c3ccc(C#N)c(C(F)(F)F)c3)C(=O)C2(C)C)c1` [Example 7, 4-{3-[2-(4-fluorophenylamino)-5-methoxybenzyl]-4,4-dimethyl-2,5-dioxoimidazolidin-1-yl}-2-trifluoromethylbenzonitrile], for which the Ki was determined as 15 nM. Same read-out and setting: as for `COC(=O)c1cc(Nc2ccccc2CN2C(=O)N(c3ccc(C#N)c(C(F)(F)F)c3)C(=O)C2(C)C)ccc1OC` [Example 129, methyl 5-{2-[3-(4-cyano-3-trifluoromethylphenyl)-5,5-dimethyl-2,4-dioxoimidazolidin-1-ylmethyl]phenylamino}-2-methoxybenzoate], the figure is 10 nM.

In turn, `CC(C)(C)c1cc(N2C(=O)N(Cc3ccccc3Nc3ccccc3)C(C)(C)C2=O)ccc1C#N` [Example 63, 2-tert-Butyl-4-[4,4-dimethyl-2,5-dioxo-3-(2-phenylaminobenzyl)imidazolidin-1-yl]benzonitrile] displayed a Ki of 9 nM. Still for that read-out and setting: then `CC1(C)C(=O)N(c2ccc(F)c(C(F)(F)F)c2)C(=O)N1Cc1ccccc1Nc1ccccc1` [Example 23, 3-(4-Fluoro-3-trifluoromethylphenyl)-5,5-dimethyl-1-(2-phenylaminobenzyl)imidazolidin-2,4-dione], with 10 nM. On the same count and under the same terms, then `CC1(C)C(=O)N(c2ccc(C#N)c(C(F)(F)F)c2)C(=O)N1Cc1ccccc1Nc1ccc(C=O)cc1` [Example 120, 4-{3-[2-(4-formylphenylamino)benzyl]-4,4-dimethyl-2,5-dioxoimidazolidin-1-yl}-2-trifluoromethylbenzonitrile], with 5 nM. The same measure, in the same setting: as for `COc1ccc(Nc2ccccc2CN2C(=O)N(c3ccc(C#N)c(C(F)(F)F)c3)C(=O)C2(C)C)nn1` [Example 179, 4-{3-[2-(6-methoxypyridazin-3-ylamino)benzyl]-4,4-dimethyl-2,5-dioxoimidazolidin-1-yl}-2-trifluoromethylbenzonitrile], the figure is 16 nM; as for `COc1ccc(Nc2ccc(Cl)cc2)c(CN2C(=O)N(c3ccc(C#N)c(C(F)(F)F)c3)C(=O)C2(C)C)c1` [Example 9, 4-{3-[2-(4-chlorophenylamino)-5-methoxybenzyl]-4,4-dimethyl-2,5-dioxoimidazolidin-1-yl}-2-trifluoromethylbenzonitrile], 13 nM; as for `CC1(C)C(=O)N(c2ccc(C#N)c(C(F)(F)F)c2)C(=O)N1Cc1ccccc1Nc1ccncc1` [Example 61, 4-{4,4-Dimethyl-2,5-dioxo-3-[2-(pyridin-4-ylamino)benzyl]imidazolidin-1-yl}-2-trifluoromethylbenzonitrile], 19 nM. `CC1(C)C(=O)N(c2ccc(C#N)c(C(F)(F)F)c2)C(=O)N1Cc1ccccc1Nc1ccc(F)cc1C#N` [Example 53, 4-{3-[2-(2-cyano-4-fluorophenylamino)benzyl]-4,4-dimethyl-2,5-dioxoimidazolidin-1-yl}-2-trifluoromethylbenzonitrile] showed a Ki of 2 nM.

`COC(=O)c1ccc(Nc2cc(F)ccc2CN2C(=O)N(c3ccc(C#N)c(C(C)(C)C)c3)C(=O)C2(C)C)cc1` [Example 157, methyl 4-{2-[3-(3-tert-butyl-4-cyanophenyl)-5,5-dimethyl-2,4-dioxoimidazolidin-1-ylmethyl]-5-fluorophenylamino}benzoate] showed a Ki of 5 nM. As to `CC1(C)C(=O)N(c2ccc(C#N)c(C(F)(F)F)c2)C(=O)N1Cc1cccc(Nc2ccccc2)c1` [Example 29, 4-[4,4-Dimethyl-2,5-dioxo-3-(3-phenylaminobenzyl)imidazolidin-1-yl]-2-trifluoromethylbenzonitrile], the Ki under setting [1] is 107 nM.

`CC1(C)C(=O)N(c2ccc(C#N)c(C(F)(F)F)c2)C(=O)N1Cc1ccccc1Nc1ccc(Cl)cc1Cl` [Example 13, 4-{3-[2-(2,4-dichlorophenylamino)benzyl]-4,4-dimethyl-2,5-dioxoimidazolidin-1-yl}-2-trifluoromethylbenzonitrile] returned a Ki of 0.9 nM. With `CC1(C)C(=O)N(c2ccc(C#N)c(C(F)(F)F)c2)C(=O)N1Cc1ccccc1Nc1ccc(N(S(C)(=O)=O)S(C)(=O)=O)cc1` [Example 176], under setting [1], the Ki came out at 130 nM. Compound `CC1(C)C(=O)N(c2ccc(C#N)c(C(F)(F)F)c2)C(=O)N1Cc1cc(F)ccc1Nc1ccccc1` [Example 18, 4-[3-(5-fluoro-2-phenylaminobenzyl)-4,4-dimethyl-2,5-dioxoimidazolidin-1-yl]-2-trifluoromethylbenzonitrile] came in with a Ki of 5 nM. As to `COC(=O)c1ccc(Nc2cc(F)ccc2CN2C(=O)N(c3ccc(C#N)c(-c4ccc(Cl)cc4)c3)C(=O)C2(C)C)cc1` [Example 224, methyl 4-{2-[3-(4′-chloro-6-cyanobiphenyl-3-yl)-5,5-dimethyl-2,4-dioxoimidazolidin-1-ylmethyl]-5-fluorophenylamino}benzoate], the Ki under setting [1] was 6 nM. With `CC1(C)C(=O)N(c2ccc(F)c(C(F)(F)F)c2)C(=O)N1Cc1ccccc1Nc1ccc(F)cc1` [Example 24, 1-[2-(4-fluorophenylamino)benzyl]-3-(4-fluoro-3-trifluoromethylphenyl)-5,5-dimethylimidazolidine-2,4-dione], the Ki under setting [1] was found to be 11 nM. On to `CC1(C)C(=O)N(c2ccc(C#N)c(C(F)(F)F)c2)C(=O)N1Cc1cc(C(F)(F)F)ccc1Nc1ccc(F)cc1` [Example 17, 4-{3-[2-(4-Fluorophenylamino)-5-trifluoromethylbenzyl]-4,4-dimethyl-2,5-dioxoimidazolidin-1-yl}-2-trifluoromethylbenzonitrile], for which the Ki came to 3 nM. Turning to `CC1(C)C(=O)N(c2ccc(F)c(C(F)(F)F)c2)C(=O)N1Cc1ccc(F)cc1Nc1ccc(C(=O)N2CCNCC2)cc1` [Example 172, 1-{4-Fluoro-2-[4-(piperazine-1-carbonyl)phenylamino]benzyl}-3-(4-fluoro-3-trifluoromethylphenyl)-5,5-dimethylimidazolidine-2,4-dione], the Ki under setting [1] came out at 8 nM. The compound `CC1(C)C(=O)N(c2ccc(C#N)c(C(F)(F)F)c2)C(=O)N1Cc1cc(F)ccc1Nc1ccc(F)cc1` [Example 15, 4-{3-[5-Fluoro-2-(4-fluorophenylamino)benzyl]-4,4-dimethyl-2,5-dioxoimidazolidin-1-yl}-2-trifluoromethylbenzonitrile] came in with a Ki of 2 nM. Consider `CC1(C)C(=O)N(c2ccc(F)c(C(F)(F)F)c2)C(=O)N1Cc1ccccc1Nc1ccc(C#N)cc1` [Example 134, 4-{2-[3-(4-fluoro-3-trifluoromethylphenyl)-5,5-dimethyl-2,4-dioxoimidazolidin-1-ylmethyl]phenylamino}benzonitrile], for which the Ki was found to be 4 nM.

Regarding `CC1(C)C(=O)N(c2ccc(C#N)c(C(F)(F)F)c2)C(=O)N1Cc1ccccc1Nc1cccc(S(N)(=O)=O)c1` [Example 153, 3-{2-[3-(4-Cyano-3-trifluoromethylphenyl)-5,5-dimethyl-2,4-dioxoimidazolidin-1-ylmethyl]phenylamino}benzenesulfonamide], the Ki was determined as 20 nM. The same measure, in the same setting: as for `CC1(C)C(=O)N(c2ccc(C#N)c(C(F)(F)F)c2)C(=O)N1Cc1cc(F)ccc1Nc1ccc(Cl)cc1` [Example 16, 4-{3-[2-(4-chlorophenylamino)-5-fluorobenzyl]-4,4-dimethyl-2,5-dioxoimidazolidin-1-yl}-2-trifluoromethylbenzonitrile], the figure is 2 nM. In turn, `CC1(C)C(=O)N(c2ccc(C#N)c(S(F)(F)(F)(F)F)c2)C(=O)N1Cc1ccccc1Nc1ccc(F)cc1F` [Example 51, 4-{3-[2-(2,4-Difluorophenylamino)benzyl]-4,4-dimethyl-2,5-dioxoimidazolidin-1-yl}-2-pentafluorosulfanylbenzonitrile] returned a Ki of 2 nM. Take `CC1(C)C(=O)N(c2ccc(C#N)nc2)C(=O)N1Cc1ccccc1Nc1ccc(F)cc1F` [Example 70, 5-{3-[2-(2,4-difluorophenylamino)benzyl]-4,4-dimethyl-2,5-dioxoimidazolidin-1-yl}pyridine-2-carbonitrile]: the Ki under setting [1] was 27 nM. Still for that read-out and setting: as for `CCNS(=O)(=O)c1ccc(Nc2ccccc2CN2C(=O)N(c3ccc(C#N)c(C(F)(F)F)c3)C(=O)C2(C)C)cc1` [Example 151, 4-{2-[3-(4-cyano-3-trifluoromethylphenyl)-5,5-dimethyl-2,4-dioxoimidazolidin-1-ylmethyl]phenylamino}-N-ethylbenzenesulfonamide], the figure is 155 nM. `COC(=O)c1ccc(Nc2cc(F)ccc2CN2C(=O)N(c3ccc(C#N)c(C(F)(F)F)c3)C(=O)C2(C)C)cc1` [Example 111, Methyl 4-{2-[3-(4-cyano-3-trifluoromethylphenyl)-5,5-dimethyl-2,4-dioxoimidazolidin-1-ylmethyl]-5-fluorophenylamino}benzoate] returned a Ki of 1 nM.

In turn, `CC(C)(C)OC(=O)c1ccc(Nc2cc(C#N)ccc2CN2C(=O)N(c3ccc(C#N)c(C(F)(F)F)c3)C(=O)C2(C)C)cc1` [Example 126, tert-Butyl 4-{5-cyano-2-[3-(4-cyano-3-trifluoromethylphenyl)-5,5-dimethyl-2,4-dioxoimidazolidin-1-ylmethyl]phenylamino}benzoate] came in with a Ki of 23 nM.
